In ChEMBL document CHEMBL5608181, “Discovery of indazole inhibitors for heat shock protein 90 as anti-cancer agents” (Eur J Med Chem, 2024):
Activity calls are given as the source filed them. No cut-off for these calls is given here.

What was measured:
[1] = Stability in human plasma assessed as compound remaining incubated for 120 mins; type: ADME, cell-free; details: read-out: Stability
[2] = AUC/dose in Sprague-Dawley rat at 10 mg/kg, po; type: ADME, organism-based; details: in vivo
[3] = Tmax in Sprague-Dawley rat at 10 mg/kg, po; type: ADME, organism-based; details: in vivo
[4] = AUClast in Sprague-Dawley rat at 10 mg/kg, po; type: ADME, organism-based; details: in vivo
CYP2C19 = CYP2C19 (Homo sapiens, UniProt P33261); assay: Inhibition of CYP2C19 (unknown origin) at 10 uM relative to control; type: ADME
Chain of CYP2C19 (P33261 whole entry): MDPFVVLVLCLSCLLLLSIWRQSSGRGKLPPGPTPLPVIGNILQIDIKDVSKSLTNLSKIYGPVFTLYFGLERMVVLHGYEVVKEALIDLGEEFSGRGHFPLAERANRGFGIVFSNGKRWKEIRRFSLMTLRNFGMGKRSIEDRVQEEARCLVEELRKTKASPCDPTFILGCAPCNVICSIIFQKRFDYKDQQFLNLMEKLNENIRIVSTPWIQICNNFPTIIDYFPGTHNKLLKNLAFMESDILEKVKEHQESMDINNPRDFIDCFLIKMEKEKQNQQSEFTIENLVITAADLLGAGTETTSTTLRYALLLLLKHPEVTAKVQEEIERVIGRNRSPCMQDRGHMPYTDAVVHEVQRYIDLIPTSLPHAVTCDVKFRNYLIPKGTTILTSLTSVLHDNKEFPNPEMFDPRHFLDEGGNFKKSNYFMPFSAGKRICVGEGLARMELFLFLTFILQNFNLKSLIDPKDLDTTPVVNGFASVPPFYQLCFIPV

[5] = Half life in Sprague-Dawley rat at 10 mg/kg, po; type: ADME, organism-based; details: in vivo
[6] = Oral bioavailability in Sprague-Dawley rat at 10 mg/kg; type: ADME, organism-based; details: in vivo
[7] = Volume of distribution in Sprague-Dawley rat at 10 mg/kg, po; type: ADME, organism-based; details: in vivo
[8] = Cmax in Sprague-Dawley rat at 10 mg/kg, po; type: ADME, organism-based; details: in vivo
[9] = AUC/dose in Sprague-Dawley rat at 5 mg/kg, iv; type: ADME, organism-based; details: in vivo
[10] = target: Heat shock protein HSP 90-alpha (Homo sapiens) (UniProt P07900); assay: Inhibition of HSP90alpha in human Trastuzumab-sensitive BT474 cells assessed as reduction in HER2 phosphorylation level at Tyr1221/1222 residues at 10 uM measured upto 72 hrs by Western blot analysis; type: cell-based
[11] = C0 in Sprague-Dawley rat at 5 mg/kg, iv; type: ADME, organism-based; details: in vivo
[12] = Genotoxicity in Salmonella typhimurium TA98 in presence of rat liver S9 fraction by Ames test; type: toxicity, subcellular; details: salmonella enterica subsp. enterica serovar typhimurium
BT-474 [13] = assay: Downregulation of survivin protein level in human Trastuzumab-sensitive BT474 cell at 10 uM measured upto 72 hrs by Western blot analysis; type: functional, cell-based
[14] = system: Trastuzumab-resistant JIMT-1; assay: Antitumor activity against human Trastuzumab-resistant JIMT-1 cell xenografted in female BALB/c nude mouse assessed as inhibition of tumor weight at 20 mg/kg, ip administered every other day for 40 days; type: functional, organism-based; details: time 40.0 day
[15] = target: Heat shock protein HSP 90-alpha (Homo sapiens) (UniProt P07900); assay: Inhibition of PPID binding to C-terminal Hsp90-alpha CTD (unknown origin) at 500 uM by Alpha screen microplate reader analysis
[16] = system: Trastuzumab-resistant JIMT-1; assay: Downregulation of survivin protein level in human Trastuzumab-resistant JIMT-1 cell at 10 uM measured upto 72 hrs by Western blot analysis; type: functional, cell-based
CYP2D6 = CYP2D6 (Homo sapiens, UniProt P10635); assay: Inhibition of CYP2D6 (unknown origin) at 10 uM relative to control; type: ADME
Chain of CYP2D6 (P10635 whole entry): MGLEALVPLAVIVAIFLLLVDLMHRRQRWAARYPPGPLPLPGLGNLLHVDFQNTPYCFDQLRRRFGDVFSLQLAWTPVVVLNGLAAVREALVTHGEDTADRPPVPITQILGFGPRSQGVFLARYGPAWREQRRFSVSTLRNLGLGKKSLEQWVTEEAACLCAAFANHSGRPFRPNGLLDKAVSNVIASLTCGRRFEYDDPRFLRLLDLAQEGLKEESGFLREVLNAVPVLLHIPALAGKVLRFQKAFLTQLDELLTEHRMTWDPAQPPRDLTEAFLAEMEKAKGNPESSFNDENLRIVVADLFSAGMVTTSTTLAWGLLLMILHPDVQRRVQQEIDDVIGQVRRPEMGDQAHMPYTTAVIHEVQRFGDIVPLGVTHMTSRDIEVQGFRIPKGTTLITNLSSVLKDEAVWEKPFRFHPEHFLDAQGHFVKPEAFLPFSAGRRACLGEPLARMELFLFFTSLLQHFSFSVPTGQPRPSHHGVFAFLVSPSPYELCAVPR

[17] = MRTinfinity in Sprague-Dawley rat at 10 mg/kg, po; type: ADME, organism-based; details: in vivo
[18] = Toxicity in female BALB/c nude mouse assessed as effect on body weight at 20 mg/kg, ip administered every other day for 40 days; type: organism-based; details: in vivo, 960 h, time 40 day
[19] = Half life in Sprague-Dawley rat at 5 mg/kg, iv; type: ADME, organism-based; details: in vivo
[20] = Genotoxicity in Salmonella typhimurium TA98 in absence of rat liver S9 fraction by Ames test; type: toxicity; details: salmonella enterica subsp. enterica serovar typhimurium
[21] = Metabolic stability in rat liver microsomes assessed as parent compound remaining measured after 30 mins; type: ADME, Microsome; details: read-out: Stability
[22] = Genotoxicity in Salmonella typhimurium TA100 in presence of rat liver S9 fraction by Ames test; type: toxicity, subcellular; details: salmonella enterica subsp. enterica serovar typhimurium
[23] = system: Trastuzumab-resistant JIMT-1; assay: Antitumor activity against human Trastuzumab-resistant JIMT-1 cell xenografted in female BALB/c nude mouse assessed as inhibition of tumor burden at 20 mg/kg, ip administered every other day for 40 days; type: functional, organism-based; details: time 40.0 day
[24] = MRTinfinity in Sprague-Dawley rat at 5 mg/kg, iv; type: ADME, organism-based; details: in vivo
hERG (KCNH2) [25] = target: T1, hERG (KCNH2) (Homo sapiens, UniProt Q12809); assay: Inhibition of human ERG at 10 uM by fluorescence polarization assay relative to control
T1 sequence (Q12809 whole entry): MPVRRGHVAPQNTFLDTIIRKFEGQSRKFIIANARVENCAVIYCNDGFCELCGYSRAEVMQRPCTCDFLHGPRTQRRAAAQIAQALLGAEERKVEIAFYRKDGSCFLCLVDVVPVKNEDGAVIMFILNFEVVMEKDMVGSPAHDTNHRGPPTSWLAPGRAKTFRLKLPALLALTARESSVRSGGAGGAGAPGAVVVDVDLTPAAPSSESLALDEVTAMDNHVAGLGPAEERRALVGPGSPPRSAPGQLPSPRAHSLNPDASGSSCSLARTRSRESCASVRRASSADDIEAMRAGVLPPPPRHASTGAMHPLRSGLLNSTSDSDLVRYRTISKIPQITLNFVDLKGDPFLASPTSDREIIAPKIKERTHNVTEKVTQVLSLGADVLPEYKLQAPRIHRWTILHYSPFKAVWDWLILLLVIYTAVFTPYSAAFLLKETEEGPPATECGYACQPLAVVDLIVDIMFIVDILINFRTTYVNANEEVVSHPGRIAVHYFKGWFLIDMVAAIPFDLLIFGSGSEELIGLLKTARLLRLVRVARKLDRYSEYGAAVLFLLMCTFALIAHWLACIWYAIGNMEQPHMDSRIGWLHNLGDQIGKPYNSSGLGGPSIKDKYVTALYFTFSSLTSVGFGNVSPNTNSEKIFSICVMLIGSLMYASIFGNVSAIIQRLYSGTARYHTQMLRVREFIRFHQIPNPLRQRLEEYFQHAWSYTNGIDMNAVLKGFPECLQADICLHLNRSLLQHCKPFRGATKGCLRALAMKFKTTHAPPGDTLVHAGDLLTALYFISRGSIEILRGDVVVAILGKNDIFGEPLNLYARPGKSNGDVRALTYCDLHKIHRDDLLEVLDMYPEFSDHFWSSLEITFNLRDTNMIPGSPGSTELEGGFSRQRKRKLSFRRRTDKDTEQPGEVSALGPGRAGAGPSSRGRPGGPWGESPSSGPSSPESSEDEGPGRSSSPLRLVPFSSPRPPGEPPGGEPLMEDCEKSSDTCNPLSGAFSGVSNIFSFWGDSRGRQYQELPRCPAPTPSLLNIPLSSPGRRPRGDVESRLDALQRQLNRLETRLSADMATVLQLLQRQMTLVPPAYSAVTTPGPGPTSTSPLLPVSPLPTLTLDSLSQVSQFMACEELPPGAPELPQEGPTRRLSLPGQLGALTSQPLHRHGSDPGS

[26] = target: Heat shock protein HSP 90-alpha (Homo sapiens) (UniProt P07900); assay: Inhibition of HSP90alpha in human Trastuzumab-resistant JIMT-1 cell assessed as reduction in HER2 phosphorylation level at Tyr1221/1222 residues at 10 uM measured upto 72 hrs by Western blot analysis; type: cell-based
[27] = Stability in rat plasma assessed as compound remaining incubated for 120 mins; type: ADME, cell-free; details: read-out: Stability
[28] = Antiproliferative activity against human Trastuzumab-sensitive BT474 cell assessed as inhibition of cell viability measured after 72 hrs by CellTiter 96 Aqueous One Solution Cell Proliferation Assay; type: functional, cell-based; details: BT-474, 72 h
[29] = AUClast in Sprague-Dawley rat at 5 mg/kg, iv; type: ADME, organism-based; details: in vivo
hERG (KCNH2) [30] = target: T1, hERG (KCNH2); assay: Inhibition of human ERG expressed in CHO cells at 3 uM by whole-cell patch clamp assay relative to control; type: toxicity, cell-based; details: CHO cells expressing hERG
CYP3A4 = CYP3A4 (Homo sapiens, UniProt P08684); assay: Inhibition of CYP3A4 (unknown origin) at 10 uM relative to control; type: ADME
Chain of CYP3A4 (P08684 whole entry): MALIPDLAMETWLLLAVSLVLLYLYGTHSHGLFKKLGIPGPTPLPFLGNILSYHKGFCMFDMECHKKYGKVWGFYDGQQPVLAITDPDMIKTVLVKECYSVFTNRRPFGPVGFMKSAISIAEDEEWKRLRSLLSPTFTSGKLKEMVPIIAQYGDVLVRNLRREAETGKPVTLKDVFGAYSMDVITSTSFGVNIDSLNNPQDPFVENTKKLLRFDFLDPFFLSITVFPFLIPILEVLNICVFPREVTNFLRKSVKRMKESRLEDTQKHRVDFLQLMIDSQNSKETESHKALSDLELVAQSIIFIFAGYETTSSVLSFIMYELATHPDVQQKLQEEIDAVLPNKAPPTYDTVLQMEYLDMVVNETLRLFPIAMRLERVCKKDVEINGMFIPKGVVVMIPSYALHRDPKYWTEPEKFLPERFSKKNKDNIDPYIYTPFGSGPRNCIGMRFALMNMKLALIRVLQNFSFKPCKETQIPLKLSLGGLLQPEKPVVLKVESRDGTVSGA

[31] = Clearance in Sprague-Dawley rat at 5 mg/kg, iv; type: ADME, organism-based; details: in vivo
[32] = Metabolic stability in human liver microsomes assessed as parent compound remaining measured after 30 mins; type: ADME, Microsome; details: read-out: Stability
[33] = target: Heat shock protein HSP 90-alpha (Homo sapiens) (UniProt P07900); assay: Inhibition of HSP90alpha in human Trastuzumab-resistant JIMT-1 cell assessed as reduction in Akt phosphorylation level at Ser473 residues at 10 uM measured upto 72 hrs by Western blot analysis; type: cell-based
[34] = system: Trastuzumab-resistant JIMT-1; assay: Antiproliferative activity against human Trastuzumab-resistant JIMT-1 cell assessed as inhibition of cell viability measured after 72 hrs by CellTiter 96 Aqueous One Solution Cell Proliferation Assay; type: functional, cell-based; details: Trastuzumab-resistant JIMT-1, 72 h
[35] = AUCinfinity in Sprague-Dawley rat at 10 mg/kg, po; type: ADME, organism-based; details: in vivo
CYP2C9 = CYP2C9 (Homo sapiens, UniProt P11712); assay: Inhibition of CYP2C9 (unknown origin) at 10 uM relative to control; type: ADME
Chain of CYP2C9 (P11712 whole entry): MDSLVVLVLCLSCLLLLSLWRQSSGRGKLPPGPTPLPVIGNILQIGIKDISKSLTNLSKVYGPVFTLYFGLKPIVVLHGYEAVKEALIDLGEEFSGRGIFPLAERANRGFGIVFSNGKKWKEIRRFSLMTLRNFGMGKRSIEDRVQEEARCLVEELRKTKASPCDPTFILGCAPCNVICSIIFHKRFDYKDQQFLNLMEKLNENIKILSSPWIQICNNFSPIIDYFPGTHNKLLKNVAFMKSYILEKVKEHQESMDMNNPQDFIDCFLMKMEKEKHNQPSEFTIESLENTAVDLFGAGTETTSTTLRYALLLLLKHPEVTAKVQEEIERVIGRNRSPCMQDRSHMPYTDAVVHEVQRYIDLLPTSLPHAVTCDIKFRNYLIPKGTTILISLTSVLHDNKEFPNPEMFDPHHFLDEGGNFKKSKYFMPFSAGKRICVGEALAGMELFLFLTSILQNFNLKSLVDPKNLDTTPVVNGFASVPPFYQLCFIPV

HEK293 = assay: Cytotoxicity against HEK293 cells assessed as reduction in cell viability at 10 uM measured after 72 hrs by CellTiter 96 Aqueous One Solution Cell Proliferation Assay; type: toxicity, cell-based; details: human, hek293, 72 h
BT-474 [36] = assay: Downregulation of AKT expression in human Trastuzumab-sensitive BT474 cell at 10 uM measured upto 72 hrs by Western blot analysis; type: functional, cell-based
CYP1A2 = target: T2, CYP1A2 (Homo sapiens, UniProt P05177); assay: Inhibition of CYP1A2 (unknown origin) at 10 uM relative to control; type: ADME
T2 sequence (P05177 whole entry): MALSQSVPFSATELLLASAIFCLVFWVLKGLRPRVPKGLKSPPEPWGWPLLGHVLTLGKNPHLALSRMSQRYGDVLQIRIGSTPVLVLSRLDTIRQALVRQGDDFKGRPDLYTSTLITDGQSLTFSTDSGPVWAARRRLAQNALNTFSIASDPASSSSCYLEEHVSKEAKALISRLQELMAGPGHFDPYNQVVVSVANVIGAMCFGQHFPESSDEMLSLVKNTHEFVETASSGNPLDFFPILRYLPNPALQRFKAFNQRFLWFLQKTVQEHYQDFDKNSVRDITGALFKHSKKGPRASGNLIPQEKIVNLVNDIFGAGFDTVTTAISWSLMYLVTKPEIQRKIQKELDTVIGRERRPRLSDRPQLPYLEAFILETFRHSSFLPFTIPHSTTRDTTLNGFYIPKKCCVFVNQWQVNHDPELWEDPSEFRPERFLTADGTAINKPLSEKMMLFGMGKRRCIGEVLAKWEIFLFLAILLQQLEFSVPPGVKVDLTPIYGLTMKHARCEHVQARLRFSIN

BT-474 [37] = assay: Downregulation of cyclinD1 level in human Trastuzumab-sensitive BT474 cell at 10 uM measured upto 72 hrs by Western blot analysis; type: functional, cell-based
JIMT-1 [38] = assay: Antiproliferative activity against human JIMT-1 cells assessed as inhibition of cell viability at 10 uM measured after 72 hrs by CellTiter 96 Aqueous One Solution Cell Proliferation Assay relative to control; type: functional
[39] = target: Heat shock protein HSP 90-alpha (Homo sapiens) (UniProt P07900); assay: Inhibition of HSP90alpha in human Trastuzumab-sensitive BT474 cell assessed as reduction in Akt phosphorylation level at Ser473 residues at 10 uM measured upto 72 hrs by Western blot analysis; type: cell-based
BT-474 [40] = assay: Antiproliferative activity against human BT-474 cells assessed as inhibition of cell viability at 10 uM measured after 72 hrs by CellTiter 96 Aqueous One Solution Cell Proliferation Assay relative to control; type: functional
[41] = system: Trastuzumab-resistant JIMT-1; assay: Downregulation of HER2 expression in human Trastuzumab-resistant JIMT-1 cell at 10 uM measured upto 72 hrs by Western blot analysis; type: functional, cell-based
[42] = system: Trastuzumab-resistant JIMT-1; assay: Downregulation of cyclinD1 level in human Trastuzumab-resistant JIMT-1 cell at 10 uM measured upto 72 hrs by Western blot analysis; type: functional, cell-based
[43] = Genotoxicity in Salmonella typhimurium TA100 in absence of rat liver S9 fraction by Ames test; type: toxicity; details: salmonella enterica subsp. enterica serovar typhimurium
Homo sapiens = organism: Homo sapiens; assay: Inhibition of N-terminal HSP90 (unknown origin) at 10 uM by AlphaLISA assay
[44] = system: Trastuzumab-resistant JIMT-1; assay: Antitumor activity against human Trastuzumab-resistant JIMT-1 cell xenografted in female BALB/c nude mouse assessed as inhibition of tumor volume at 20 mg/kg, ip administered every other day for 40 days; type: functional, organism-based; details: time 40.0 day
[45] = AUCinfinity in Sprague-Dawley rat at 5 mg/kg, iv; type: ADME, organism-based; details: in vivo
BT-474 [46] = assay: Downregulation of HER2 expression in human Trastuzumab-sensitive BT474 cell at 10 uM measured upto 72 hrs by Western blot analysis; type: functional, cell-based
hERG (KCNH2) [47] = target: T1, hERG (KCNH2); assay: Inhibition of human ERG expressed in CHO cells at 30 uM by whole-cell patch clamp assay relative to control; type: toxicity, cell-based; details: CHO cells expressing hERG
[48] = Volume of distribution in Sprague-Dawley rat at 5 mg/kg, iv; type: ADME, organism-based; details: in vivo
[49] = Clearance in Sprague-Dawley rat at 10 mg/kg, po; type: ADME, organism-based; details: in vivo
[50] = system: Trastuzumab-resistant JIMT-1; assay: Downregulation of AKT expression in human Trastuzumab-resistant JIMT-1 cell at 10 uM measured upto 72 hrs by Western blot analysis; type: functional, cell-based
JIMT-1 [51] = assay: Antiproliferative activity against human JIMT-1 cells assessed as inhibition of cell viability at 10 uM measured after 72 hrs by CellTiter 96 Aqueous One Solution Cell Proliferation Assay; type: functional, cell-based
BT-474 [52] = assay: Antiproliferative activity against human BT-474 cells assessed as inhibition of cell viability at 10 uM measured after 72 hrs by CellTiter 96 Aqueous One Solution Cell Proliferation Assay; type: functional, cell-based

COc1c(C(=O)Nc2ccc3c(C)nn(CCC4CCN(C)CC4)c3c2)ccc2c1C=CC(C)(C)O2
remaining at 2 h [1]: 100% | AUC/dose [2]: 103.2 ng·h/mL | Tmax [3]: 4 h | AUC(0-t) [4]: 1030 ng·h/mL | inhibition at 10 µM (CYP2C19): 56.3% | half-life [5]: 9.6 h | F [6]: 66.9% | Vd [7]: 3.6 L/kg | Cmax [8]: 159 ng/mL | AUC/dose [9]: 154.3 ng·h/mL | inhibition [10]: Active | C0 [11]: 342 ng/mL | Activity [12]: Non-Toxic | Activity (BT-474 [13]): Active | Activity [14]: Active | inhibition [15]: Active | Activity [16]: Active | inhibition at 10 µM (CYP2D6): 55.3% | MRT inf [17]: 15 h | Activity [18]: Non-Toxic | half-life [19]: 4.4 h | Activity [20]: Non-Toxic | remaining at 0.5 h [21]: 62.8% | Activity [22]: Non-Toxic | Activity [23]: Active | MRT inf [24]: 5.4 h | inhibition at 10 µM (hERG (KCNH2) [25]): 57% | inhibition [26]: Active | remaining at 2 h [27]: 98.3% | IC50 [28]: 6.86 µM | AUC(0-t) [29]: 771 ng·h/mL | inhibition at 3 µM (hERG (KCNH2) [30]): 30.4% | inhibition at 10 µM (CYP3A4): 73% | clearance [31]: 84.5 mL/min | remaining at 0.5 h [32]: 94.5% | inhibition [33]: Active | IC50 [34]: 4.42 µM | AUC [35]: 2957 ng·h/mL | inhibition at 10 µM (CYP2C9): 78.2% | Activity (HEK293): Toxic | Activity (BT-474 [36]): Active | inhibition at 10 µM (CYP1A2): > 100% | Activity (BT-474 [37]): Active | inhibition at 10 µM (JIMT-1 [38]): < 20% | inhibition [39]: Active | inhibition at 10 µM (BT-474 [40]): < 20% | Activity [41]: Active | Activity [42]: Active | Activity [43]: Non-Toxic | inhibition (Homo sapiens): inactive | Activity [44]: Active | AUC [45]: 1059 ng·h/mL | Activity (BT-474 [46]): Active | inhibition at 30 µM (hERG (KCNH2) [47]): 87.1% | Vd [48]: 31.2 L/kg | CL/F [49]: 47.3 mL/min | Activity [50]: Active

COCCn1cc(NC(=O)c2ccc3c(c2OC)C=CC(C)(C)O3)c2cncnc21
Activity (JIMT-1 [51]): Active | Activity (BT-474 [52]): Active | Activity (HEK293): Toxic
